Measured values from patent US9931327B2, “Derivatives of 1-phenyl-2-pyridinyl alkyl alcohols as phosphodiesterase inhibitors” (Chiesi Farmaceutici S.p.A., priority 2011, dated 2018).
Where a name gives a salt, the structure may show the parent alone.

Tested on: LPS-induced TNF-α release in peripheral blood mononuclear cells (PBMCs)
Test: In vitro determination of PDE4 inhibitory activity in the PBMCs assay (LPS-induced TNF-α release)
Type: cell-based, human
Settings: PBMC; human PBMCs, LPS 3 ng/ml, 18 hours, TNF-α by ELISA; read-out: PDE4 inhibition (IC50, 50% inhibition of LPS-induced TNF-α release)
Outline: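 Cryopreserved human PBMCs (10^5 cells/well) pre-incubated 30 min with compound (10^−12 to 10^−6 M or 10^−3 to 10^−7 M), then stimulated with LPS 3 ng/ml for 18 h at 37 °C. TNF-α in medium by ELISA; IC50 as mean ± 95% confidence limits.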

Structure (SMILES)	IC50
Cn1ccnc1S(=O)(=O)N1CCC[C@H]1C(=O)O[C@@H](Cc1c(Cl)c[n+]([O-])cc1Cl)c1ccc(OC(F)F)c(OCC2CC2)c1 [Compound 155, 3,5-dichloro-4-((S)-2-(3-(cyclopropylmethoxy)-4-(difluoromethoxy)phenyl)-2-((S)-1-(1-methyl-1H-imidazol-2-ylsulfonyl)pyrrolidine-2-carbonyloxy)ethyl)pyridine 1-oxide]	< 0.1 nM
COc1ccc(S(=O)(=O)N2CCSC2C(=O)O[C@@H](Cc2c(Cl)c[n+]([O-])cc2Cl)c2ccc(OC(F)F)c(OCC3CC3)c2)cc1C(=O)N(C)C (stereo partly drawn) [Compound 123, 3,5-dichloro-4-((2S)-2-(3-(cyclopropylmethoxy)-4-(difluoromethoxy)phenyl)-2-(3-(3-(dimethylcarbamoyl)-4-methoxyphenylsulfonyl)thiazolidine-2-carbonyloxy)ethyl)pyridine 1-oxide]	< 0.1 nM
CN(C)C(=O)c1cccc(S(=O)(=O)N2CCS[C@H]2C(=O)O[C@@H](Cc2c(Cl)c[n+]([O-])cc2Cl)c2ccc(OC(F)F)c(OCC3CC3)c2)c1 [Compound 52, 3,5-dichloro-4-((S)-2-(3-(cyclopropylmethoxy)-4-(difluoromethoxy)phenyl)-2-((S)-3-(3-(dimethylcarbamoyl)phenylsulfonyl)thiazolidine-2-carbonyloxy)ethyl)pyridine 1-oxide]	< 0.1 nM
COc1ccc(OC)c(S(=O)(=O)N2CCS[C@H]2C(=O)O[C@@H](Cc2c(Cl)c[n+]([O-])cc2Cl)c2ccc(OC(F)F)c(OCC3CC3)c2)c1 [Compound 115, 3,5-dichloro-4-((S)-2-(3-(cyclopropylmethoxy)-4-(difluoromethoxy)phenyl)-2-((S)-3-(2,5-dimethoxyphenylsulfonyl)thiazolidine-2-carbonyloxy)ethyl)pyridine 1-oxide]	< 0.1 nM
CN(C)C(=O)c1cccc(S(=O)(=O)N2CSC[C@H]2C(=O)O[C@@H](Cc2c(Cl)c[n+]([O-])cc2Cl)c2ccc(OC(F)F)c(OCC3CC3)c2)c1 [Compound 84, 3,5-dichloro-4-((S)-2-(3-(cyclopropylmethoxy)-4-(difluoromethoxy)phenyl)-2-((R)-3-(3-(dimethylcarbamoyl)phenylsulfonyl)thiazolidine-4-carbonyloxy)ethyl)pyridine 1-oxide]	< 0.1 nM
CN(C)C(=O)c1cccc(S(=O)(=O)N2CCOC(C(=O)O[C@@H](Cc3c(Cl)c[n+]([O-])cc3Cl)c3ccc(OC(F)F)c(OCC4CC4)c3)C2)c1 (stereo partly drawn) [Compound 78, 3,5-dichloro-4-((2S)-2-(3-(cyclopropylmethoxy)-4-(difluoromethoxy)phenyl)-2-(4-(3-(dimethylcarbamoyl)phenylsulfonyl)morpholine-2-carbonyloxy)ethyl)pyridine 1-oxide]	0.1 to 1 nM
CN(C)C(=O)c1cccc(CC(=O)N2CCS[C@H]2C(=O)O[C@@H](Cc2c(Cl)c[n+]([O-])cc2Cl)c2ccc(OC(F)F)c(OCC3CC3)c2)c1 [Compound 198, 3,5-dichloro-4-((S)-2-(3-(cyclopropylmethoxy)-4-(difluoro-methoxy)phenyl)-2-((S)-3-(2-(3-(dimethylcarbamoyl)phenyl)acetyl)-thiazolidine-2-carbonyloxy)ethyl)pyridine 1-oxide]	0.1 to 1 nM
CN1C(=O)Cc2cc(S(=O)(=O)N3CCS[C@H]3C(=O)O[C@@H](Cc3c(Cl)c[n+]([O-])cc3Cl)c3ccc(OC(F)F)c(OCC4CC4)c3)ccc21 [Compound 210, 3,5-dichloro-4-((S)-2-(3-(cyclopropylmethoxy)-4-(difluoromethoxy)phenyl)-2-((S)-3-(1-methyl-2-oxoindolin-5-ylsulfonyl)thiazolidine-2-carbonyloxy)ethyl)pyridine 1-oxide]	< 0.1 nM
CN(C)C(=O)c1ccc(S(=O)(=O)N2CCSC2C(=O)O[C@@H](Cc2c(Cl)c[n+]([O-])cc2Cl)c2ccc(OC(F)F)c(OCC3CC3)c2)cc1 (stereo partly drawn) [Compound 125, 3,5-dichloro-4-((2S)-2-(3-(cyclopropylmethoxy)-4-(difluoromethoxy)phenyl)-2-(3-(4-(dimethylcarbamoyl)phenylsulfonyl)thiazolidine-2-carbonyloxy)ethyl)pyridine 1-oxide]	0.1 to 1 nM
CS(=O)(=O)N(CCN1CCOCC1)c1ccc(S(=O)(=O)N2CCSC2C(=O)O[C@@H](Cc2c(Cl)c[n+]([O-])cc2Cl)c2ccc(OC(F)F)c(OCC3CC3)c2)cc1 (stereo partly drawn) [Compound 143, 3,5-dichloro-4-((2S)-2-(3-(cyclopropylmethoxy)-4-(difluoromethoxy)phenyl)-2-(3-(4-(N-(2-morpholinoethyl)methylsulfonamido)phenylsulfonyl)thiazolidine-2-carbonyloxy)ethyl)pyridine 1-oxide formate]	0.1 to 1 nM
N#Cc1cccc(S(=O)(=O)N2CCS[C@H]2C(=O)O[C@@H](Cc2c(Cl)c[n+]([O-])cc2Cl)c2ccc(OC(F)F)c(OCC3CC3)c2)c1 [Compound 207, 3,5-dichloro-4-((S)-2-((S)-3-(3-cyanophenylsulfonyl)thiazolidine-2-carbonyloxy)-2-(3-(cyclopropylmethoxy)-4-(difluoromethoxy)phenyl)ethyl)pyridine 1-oxide]	0.1 to 1 nM
O=C(O[C@@H](Cc1c(Cl)c[n+]([O-])cc1Cl)c1ccc(OC(F)F)c(OCC2CC2)c1)[C@@H]1SCCN1C(=O)c1cccc(-c2cnco2)c1 [Compound 41, 3,5-dichloro-4-((S)-2-(3-(cyclopropylmethoxy)-4-(difluoromethoxy)phenyl)-2-((S)-3-(3-(oxazol-5-yl)benzoyl)thiazolidine-2-carbonyloxy)ethyl)pyridine 1-oxide]	0.1 to 1 nM
CNS(=O)(=O)c1cccc(S(=O)(=O)N2CCSC2C(=O)O[C@@H](Cc2c(Cl)c[n+]([O-])cc2Cl)c2ccc(OC(F)F)c(OCC3CC3)c2)c1 (stereo partly drawn) [Compound 118, 3,5-dichloro-4-((2S)-2-(3-(cyclopropylmethoxy)-4-(difluoromethoxy)phenyl)-2-(3-(3-(N-methylsulfamoyl)phenylsulfonyl)thiazolidine-2-carbonyloxy)ethyl)pyridine 1-oxide]	< 0.1 nM
